Structure (SMILES)	melting point [°C]
COc1ccccc1N1CCN(CCC(C#N)(c2ccccc2)c2ccccc2[N+](=O)[O-])CC1 (stereo not drawn)	61 to 64
OC1CCN(c2cc(-c3ccccc3)nc(-c3ccccc3)n2)CC1	158 to 160
O=C(CCCCCCCCc1ccccc1)NO	75 to 77
O=C(/C=C/[C@@H]1[C@H]2CC(=O)O[C@H]2C[C@H]1OC(=O)c1ccccc1)COc1ccccc1	132
CC(C)(C)OC(=O)NC(C(=O)O)C1=CSCCO1 (stereo not drawn)	160
Cc1ccc(C=CC(=O)c2ccc3c(c2)C(C)(C)CCC3(C)C)cc1	153 to 154
CCNC(=O)c1ccc2cc(-c3csc(N(C)S(=O)(=O)c4ccccc4)n3)c(=O)[nH]c2c1	> 300
CSc1c(C#N)nn(-c2c(Cl)cc(C(F)(F)F)cc2Cl)c1N	147 to 148
Cc1nc(N2CCN(Cc3ccccc3)C2=O)sc1C(=O)NCc1cc(F)cc(F)c1	208 to 209
CC(C)(C)OC(=O)NCc1cc(-c2cccnc2)n[nH]1	185 to 187
CC(C)(c1ccc(N)cc1)c1ccc(N)cc1	130 to 132
COc1ccc(Nc2cncc(-c3cccc(NC(=O)c4ccccc4)c3)c2)cc1	135 to 140
O=C1Nc2cc(Cl)c(Cl)cc2N2CCNC[C@H]12	136 to 138
COc1ccc(Cn2cc3nc(Cl)nc(Cl)c3n2)cc1	108 to 109
CC(C)(C)c1cc(Cl)c2c(c1)CNS(=O)(=O)O2	158 to 160
CCNC(=O)c1c(Cl)cccc1[Si](C)(C)C(C)(C)C	140 to 142
CC(CO)c1ccc(-c2ccccc2)c(F)c1 (stereo not drawn)	61 to 63
CCCCCCCCC(=O)Oc1cc2c(s1)CCN(C(C(=O)C1CC1)c1ccccc1F)C2 (stereo not drawn)	45 to 48
O=C(O)c1ccccc1N1C(=O)c2ccc([N+](=O)[O-])cc2C1=O	242 to 243
NC1CCCCC1N1CCC(Cc2ccc(Cl)cc2)CC1 (stereo not drawn)	69.1 to 70.4
CCc1nsc(NC(=O)C(C)c2ccc3oc(-c4c(F)cccc4Cl)nc3c2)c1Cl (stereo not drawn)	178 to 179

Structure (SMILES)	melting point [°C]
COCCNC(=O)c1cccc(-c2cccc3cc(Cc4ccc5c(c4)CCO5)sc23)c1	79 to 80
CC(=O)c1cc(I)cc(S(N)(=O)=O)c1	188 to 189
NC(=O)c1c(F)cc(-c2ccc3nnn(Cc4ccc5ncccc5c4)c3n2)cc1F	272 to 275
COc1cc2c(c3c1OC(C)(C)C3)C(c1ccccc1-c1ccncc1)=NC(C)(C)C2	187 to 189
O=C(O)c1ccccc1-c1nnc(-c2cccc(C(F)(F)F)c2)o1	141 to 159
CC(C)(C)C(O)(COC1CCCCO1)Cn1ccnc1 (stereo not drawn)	107
CCCCCCCCCCCCCCCCCCOc1cc(OCCOc2ccc3ccccc3c2)cc(C(=O)O)c1	93 to 94
CCNC(=O)Nc1c(Cl)cccc1[Si](C)(C)C	161 to 163
COCC(C)n1nc(-c2cnc(N)nc2-c2ccccc2)ccc1=O (stereo not drawn)	180 to 181
CCCCCCOc1ccc(-c2ncc(Br)cn2)cn1	103 to 106
O=C1N(Cc2ccccn2)c2ccccc2C12COc1cc3[nH]ncc3cc12 (stereo not drawn)	117 to 119
CON=C(c1ccc(Cl)cc1)C(CNOC)CN1CCN(c2ccccn2)CC1 (stereo not drawn)	106 to 109
COC(=O)c1c(C(=O)OC)c(-c2ccccc2)n2c1Cc1ccccc1-2	149 to 151
C=CCOC(=O)c1ccccc1Cn1c(=O)n(S(=O)(=O)c2ccc(Cl)cc2)c(=O)c2ccc(Cl)cc21	155 to 156
CC(CCCc1ccc(F)cc1)c1cc(NC(N)=O)c2c(c1)OC(C)(C)c1ccncc1-2 (stereo not drawn)	179 to 181
O=C(CC1CCCC1)NC[C@H]1CN(c2ccc3c(c2)CCCc2cn[nH]c2-3)C(=O)O1	205 to 208
COC(=O)c1cc2c(cc1N)OCO2	107 to 108
Cc1ccc(Cc2cnc(NCCNc3ncc(Cl)cc3C)[nH]c2=O)cn1	112 to 115
COc1ccc(S(=O)(=O)Nc2ccccc2NC(=O)c2ccncc2C)cc1	194 to 195
Oc1ccc2oc(-c3ccc(O)c(F)c3)cc2c1	218 to 222
O=C1C(=O)c2ccccc2C2=C1SCC1(CCN(C(=O)Cc3ccc(Cl)cc3)CC1)O2	120 to 125

Structure (SMILES)	melting point [°C]
C[C@@H](N1CCN(C(=S)Nc2ccccc2)CC1)[C@](O)(Cn1cncn1)c1ccc(F)cc1F	106 to 108
O=C(O)C(CCc1ccccc1)NS(=O)(=O)c1ccc2sc3ccccc3c2c1 (stereo not drawn)	148 to 151
CN(C)C1CCc2c(c3ccccc3n2C)C1 (stereo not drawn)	> 300
Cc1ccc(-c2ccc3nc(C)c(C(=O)Nc4ccc(CN(C)C5CCOCC5)cc4)cc3c2)cc1	157 to 160
CCN1CCCC1CNC(=O)c1sc(CO)c(C)c1OC (stereo not drawn)	118 to 119
Cn1ncnc1COc1nn2c(-c3ccccc3)nnc2cc1-c1ccco1	263 to 265
Cn1c2ccccc2c(=NN=C2NCCS2)c2c(Cl)cccc21	206 to 207
CCCC(=O)Nc1n[nH]c2cc(-c3ccc(OC(F)(F)F)cc3)ccc12	234
O=C(OCCN1CCNC1=Nc1ccccc1N1CCOCC1)c1ccccc1	92 to 94
CC(C)(C)OC(=O)c1ncn2c1[C@@H]1CCCN1C(=O)c1c-2cccc1S(C)(=O)=O	244
Cc1nc2ccc(Cl)cc2c(-c2ccc(F)cc2)c1CO	173 to 175
Cn1nnc(-c2ccc(CNc3n[nH]c4ncnc(Nc5cccc(Cl)c5)c34)cc2)n1	232 to 235
NS(=O)(=O)c1ccc(-c2cnn(CC=C(Cl)Cl)c(=O)c2-c2ccc(F)cc2)cc1	184 to 185
COc1ccc2c(c1)c(CC(N)=O)c(C)n2Cc1ccc(OCc2ccccc2)cc1	155 to 157
C=Cc1c(C(=O)OC)cccc1[N+](=O)[O-]	44 to 45
O=C(c1ccc(Cl)cc1)c1sc2cc(O)ccc2c1-c1ccccc1	222
CCOC(=O)c1cc2cc([Si](C)(C)C)ccc2[nH]1	114 to 115
Cc1cccc(NC(=O)c2nc(-c3ccccc3)c3ccccc3c2O)n1	261 to 263
COC(=O)c1ccc(CNC(=O)c2cccc(-c3nnn(Cc4ccc(OC)cc4)n3)c2)cc1	167 to 168
COc1cc2c(cc1OC)C(c1ccccc1)N(C(=O)NCCN1CCCCC1)CC2 (stereo not drawn)	101 to 102
COCc1cc(C)nc2nc(S(=O)(=O)Nc3c(C)cccc3Cl)nn12	227

More lines, now with the values ahead:

melting point [°C]	Structure (SMILES)
140 to 145	CC(CC(F)(F)F)C(=O)Nc1cnn(-c2cccnc2)c1 (stereo not drawn)
115 to 117	CCOC(=O)C=CC(=O)c1ccc(-c2ccc(F)cc2)cc1
190	CCn1nnc(Nc2ccc3nc(NCc4ccccc4OC)ccc3c2)n1
110 to 111	O=C(O)Cc1cnn(-c2ccc(Cl)cc2)c1-c1ccccc1
180 to 184	CCC1c2cccn2-c2ccc(F)cc2N1S(=O)(=O)c1ccc(O)c(Cl)c1 (stereo not drawn)
108 to 109	OCCCSc1ccc2nccn2n1
218 to 220	O=C(c1ccncc1)N1CCN(Cc2ccc3c(c2)Cc2c(-c4ccsc4)n[nH]c2-3)CC1
184 to 185	CS(=O)(=O)Nc1c(C(=O)c2cccc(Br)c2)[nH]c2cc(Cl)ccc12
117 to 119	CC(=O)c1cc(Cl)c(N)c(I)c1F
121 to 122	COc1ccc(-c2nn(CC(C)C)c(=O)c(CO)c2-c2ccc(OC)cc2)cc1
67 to 69	O=C(NC(Cc1ccccc1)c1ccc(O)cc1)C(c1ccccc1)c1ccccc1 (stereo not drawn)
131 to 133	COc1ccc(N2CCN(c3c(C)c(C)c4c(c3C)C(O)(c3ccsc3)C(C)(C)O4)CC2)cc1 (stereo not drawn)
124 to 126	CCOC(=O)c1cnc2c(cnn2-c2ccccc2)c1N(Cc1ccccc1)S(=O)(=O)c1ccc(OC)cc1
121 to 122	CCc1c(OC)nc(OC)nc1C(C#N)c1cc(Cl)cc(Cl)c1 (stereo not drawn)
133 to 134	CCc1c2c(c(C)c(C)c1N1CCN(c3ccc(OC)cc3)CC1)OC(C)(C)C2=O
114 to 115	Cc1ccc(-c2nc3ccc(CN4CCN(C)CC4)cc3[nH]2)cc1C#Cc1cnc2cccnn12
186 to 187	O=C1CC(=O)/C(=C/c2ccccc2)N1
127 to 128	COc1cccc(OC)c1C(=O)C=Cc1c(Cl)cccc1Cl

melting point [°C]	Structure (SMILES)
210 to 219	CS(=O)(=O)c1nc(Cl)c(-c2c(F)cc(F)cc2F)c(N2CCCO2)n1
160 to 162	CCOC(=O)C1CC(=C2CCN(c3ccccc3)C2=O)c2ccc(Cl)cc2N1 (stereo not drawn)
50 to 51	CCCCCCCCCCCCCCOc1ccc(C(=O)OC)cc1OC
149 to 151	O=S1(=O)NCNc2c(Cl)cc(Cl)cc21
242 to 243	COc1cc(-c2nnn[nH]2)ccc1Cc1cn(C)c2ccc(NC(=O)CC3CCCC3)cc12
98	CSc1ncnn1C[C@]1(c2cccc(F)c2)O[C@@H]1c1ccccc1Cl (relative stereo)
123 to 126	N#CC=C(C#N)Nc1ccccc1
231 to 233	O=C(CC1CCCCC1)c1c(O)c2cccnc2n(-c2ccccc2)c1=O
228	Cc1ccc(Nn2c(-c3ccccc3)c(C)[nH]c2=S)cc1C
84.5 to 87.5	CC1CC(=O)N(c2ccc(F)cc2)C(=S)C1 (stereo not drawn)
> 300	N#Cc1nc(O)c(-c2cc(O)c(O)c([N+](=O)[O-])c2)nc1C#N
244 to 246	Clc1ccc(-c2cc3nc(N4CCOCC4)c4ccccc4c3nn2)cc1
151 to 153	CC(C)(C)CC(=O)c1c(-c2ccc3c(Br)c(OCC(=O)O)ccc3c2)oc2ccccc12
160 to 161	CN(C)C(N)=Nc1cc(S(C)=O)ccc1N1CCOCC1 (stereo not drawn)
152 to 154	CN1C(=O)C2(COc3cc4c(cc32)OCCO4)c2ccccc21 (stereo not drawn)
132	CN(c1ccc(Cl)cc1)S(=O)(=O)c1cn(S(=O)(=O)N(C)C)cn1
159 to 168	c1ccc(C(CCN2CC3=C(C2)c2cccc4cccc3c24)(c2ccccc2)c2ccccc2)cc1
